Values after ≈ are worked out from the molar mass of the structure shown. Read-outs that look alike come from different tables or passages of the source. Where a SMILES comes first, the peptide text is derived from it. Bridges are numbered along the chain shown (N, C = ends). [ ]: non-standard residue; d: D form. The star is where a group is joined. Heptanoyl(6-Me) = CC(C)CCCCC(=O)*; X2 = CC[C@H](C)CCCCC(=O)*; Heptanoyl = CCCCCCC(=O)*; Octanoyl = CCCCCCCC(=O)*; Dab = NCC[C@H](N)C(=O)O; Nva = CCC[C@H](N)C(=O)O
How the values were obtained:
Assay type in all cases: cell-based
[1] = test system: Klebsiella pneumoniae ATCC BAA-2146 (NDM-1); test: Antibacterial activity, MIC by dish double dilution method
How it was run: (§1)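 Overnight broth cultures were spotted at 10^4 CFU per dot onto agar plates holding two-fold compound dilutions (final 0.03–128 μg/mL), following CLSI. Plates were read after 18–24 h at 35 °C, with the lowest colony-free concentration taken as MIC.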

[2] = test system: Escherichia coli ATCC 25922
How it was run: as §1

[3] = test system: Pseudomonas aeruginosa ATCC 27853
How it was run: as §1

[4] = test system: Staphylococcus epidermidis ATCC 12228
How it was run: as §1

[5] = test system: Acinetobacter baumannii ATCC 19606
How it was run: as §1

[6] = agar dilution, 10^4 CFU/dot, 18 to 24 hours at 35° C.

Row | SMILES | MIC K. pneumoniae ATCC BAA-2146 (NDM-1) [1, 6] | MIC E. coli ATCC 25922 [2, 6] | MIC P. aeruginosa ATCC 27853 [3, 6] | MIC S. epidermidis ATCC 12228 [4, 6] | MIC A. baumannii ATCC 19606 [5, 6] | MIC E. coli ATCC 25922 ([2]; ATCC 25922) | MIC P. aeruginosa ATCC 27853 ([3]; ATCC 27853) | MIC S. epidermidis ATCC 12228 ([4]; ATCC 12228) | MIC A. baumannii ATCC 19606 ([5]; ATCC 19606) | MIC K. pneumoniae ATCC BAA-2146 (NDM-1) ([1]; ATCC BAA-2146)
1 | CC[C@H](C)CCCCC(=O)N[C@@H](CCN)C(=O)N[C@H](C(=O)N[C@@H](CCN)C(=O)N[C@H]1CCNC(=O)[C@H]([C@@H](C)O)NC(=O)[C@H](CCN)NC(=O)[C@H](CCN)NC(=O)[C@H](CC(C)C)NC(=O)[C@@H](CC(C)C)NC(=O)[C@H](CCN)NC1=O)[C@@H](C)O [Compound 70, (S)-6-methyloctanoyl-Dab-Thr-Dab-ring(4-10)[Dab-Dab-D-Leu-Leu-Dab-Dab-Thr]] (X2-[Dab]T[Dab][Dab][Dab][dL]L[Dab][Dab]T; lactam 4-C) | 1 µg/mL (≈ 0.855 µM) | 1 µg/mL (≈ 0.855 µM) | 2 µg/mL (≈ 1.71 µM) | 64 µg/mL (≈ 54.7 µM) | 1 µg/mL (≈ 0.855 µM) | – | – | – | – | –
2 | CC(C)CCCCC(=O)N[C@@H](CCN)C(=O)N[C@H](C(=O)N[C@@H](CCN)C(=O)N[C@H]1CCNC(=O)[C@H]([C@@H](C)O)NC(=O)[C@H](CCN)NC(=O)[C@H](CCN)NC(=O)[C@H](CC(C)C)NC(=O)[C@@H](CC(C)C)NC(=O)[C@H](CCN)NC1=O)[C@@H](C)O [Compound 74, 6-methylheptanoyl-Dab-Thr-Dab-ring(4-10)[Dab-Dab-D-Leu-Leu-Dab-Dab-Thr]] ({Heptanoyl(6-Me)}-[Dab]T[Dab][Dab][Dab][dL]L[Dab][Dab]T; lactam 4-C) | 1 µg/mL (≈ 0.865 µM) | – | – | – | – | 0.5 µg/mL (≈ 0.433 µM) | 2 µg/mL (≈ 1.73 µM) | 64 µg/mL (≈ 55.4 µM) | 0.5 µg/mL (≈ 0.433 µM) | –
3 | CCCCCCCC(=O)N[C@@H](CCN)C(=O)N[C@H](C(=O)N[C@@H](CCN)C(=O)N[C@H]1CCNC(=O)[C@H]([C@@H](C)O)NC(=O)[C@H](CCN)NC(=O)[C@H](CCN)NC(=O)[C@H](CC(C)C)NC(=O)[C@@H](CC(C)C)NC(=O)[C@H](CCN)NC1=O)[C@@H](C)O [Compound 78, octanoyl-Dab-Thr-Dab-ring(4-10)[Dab-Dab-D-Leu-Leu-Dab-Dab-Thr]] (Octanoyl-[Dab]T[Dab][Dab][Dab][dL]L[Dab][Dab]T; lactam 4-C) | – | – | – | – | – | 0.5 µg/mL (≈ 0.433 µM) | 1 µg/mL (≈ 0.865 µM) | 32 µg/mL (≈ 27.7 µM) | 0.5 µg/mL (≈ 0.433 µM) | 0.5 µg/mL (≈ 0.433 µM)
4 | CCCCCCCC(=O)N[C@@H](CCN)C(=O)N[C@H](C(=O)N[C@@H](CCN)C(=O)N[C@H]1CCNC(=O)[C@H]([C@@H](C)O)NC(=O)[C@H](CCN)NC(=O)[C@H](CCN)NC(=O)[C@H]([C@@H](C)CC)NC(=O)[C@@H](CC(C)C)NC(=O)[C@H](CCN)NC1=O)[C@@H](C)O [Compound 79, octanoyl-Dab-Thr-Dab-ring(4-10)[Dab-Dab-D-Leu-Ile-Dab-Dab-Thr]] (Octanoyl-[Dab]T[Dab][Dab][Dab][dL]I[Dab][Dab]T; lactam 4-C) | – | – | – | – | – | 0.5 µg/mL (≈ 0.433 µM) | 1 µg/mL (≈ 0.865 µM) | >128 µg/mL | 0.5 µg/mL (≈ 0.433 µM) | 1 µg/mL (≈ 0.865 µM)
5 | CCCCCCCC(=O)N[C@@H](CCN)C(=O)N[C@H](C(=O)N[C@@H](CCN)C(=O)N[C@H]1CCNC(=O)[C@H]([C@@H](C)O)NC(=O)[C@H](CCN)NC(=O)[C@H](CCN)NC(=O)[C@H](C(C)C)NC(=O)[C@@H](CC(C)C)NC(=O)[C@H](CCN)NC1=O)[C@@H](C)O [Compound 80, octanoyl-Dab-Thr-Dab-ring(4-10)[Dab-Dab-D-Leu-Val-Dab-Dab-Thr]] (Octanoyl-[Dab]T[Dab][Dab][Dab][dL]V[Dab][Dab]T; lactam 4-C) | – | – | – | – | – | 0.5 µg/mL (≈ 0.438 µM) | 1 µg/mL (≈ 0.876 µM) | >128 µg/mL | 1 µg/mL (≈ 0.876 µM) | 0.5 µg/mL (≈ 0.438 µM)
6 | CCCCCCCC(=O)N[C@@H](CCN)C(=O)N[C@H](C(=O)N[C@@H](CCN)C(=O)N[C@H]1CCNC(=O)[C@H]([C@@H](C)O)NC(=O)[C@H](CCN)NC(=O)[C@H](CCN)NC(=O)[C@H](CCC)NC(=O)[C@@H](CC(C)C)NC(=O)[C@H](CCN)NC1=O)[C@@H](C)O [Compound 81, octanoyl-Dab-Thr-Dab-ring(4-10)[Dab-Dab-D-Leu-Nva-Dab-Dab-Thr]] (Octanoyl-[Dab]T[Dab][Dab][Dab][dL][Nva][Dab][Dab]T; lactam 4-C) | – | – | – | – | – | 0.5 µg/mL (≈ 0.438 µM) | 1 µg/mL (≈ 0.876 µM) | >128 µg/mL | 1 µg/mL (≈ 0.876 µM) | 1 µg/mL (≈ 0.876 µM)
7 | CCCCCCC(=O)N[C@@H](CCN)C(=O)N[C@H](C(=O)N[C@@H](CCN)C(=O)N[C@H]1CCNC(=O)[C@H]([C@@H](C)O)NC(=O)[C@H](CCN)NC(=O)[C@H](CCN)NC(=O)[C@H]([C@@H](C)CC)NC(=O)[C@@H](CC(C)C)NC(=O)[C@H](CCN)NC1=O)[C@@H](C)O [Compound 83, heptanoyl-Dab-Thr-Dab-ring(4-10)[Dab-Dab-D-Leu-Ile-Dab-Dab-Thr]] (Heptanoyl-[Dab]T[Dab][Dab][Dab][dL]I[Dab][Dab]T; lactam 4-C) | – | – | – | – | – | 0.5 µg/mL (≈ 0.438 µM) | 1 µg/mL (≈ 0.876 µM) | >128 µg/mL | 1 µg/mL (≈ 0.876 µM) | 1 µg/mL (≈ 0.876 µM)
8 | CCCCCCCC(=O)N[C@@H](CCN)C(=O)N[C@H](C(=O)N[C@@H](CO)C(=O)N[C@H]1CCNC(=O)[C@H]([C@@H](C)O)NC(=O)[C@H](CCN)NC(=O)[C@H](CCN)NC(=O)[C@H](CC(C)C)NC(=O)[C@@H](CC(C)C)NC(=O)[C@H](CCN)NC1=O)[C@@H](C)O [Compound 98, octanoyl-Dab-Thr-Ser-ring(4-10)[Dab-Dab-D-Leu-Leu-Dab-Dab-Thr]] (Octanoyl-[Dab]TS[Dab][Dab][dL]L[Dab][Dab]T; lactam 4-C) | – | – | – | – | – | 0.5 µg/mL (≈ 0.438 µM) | 1 µg/mL (≈ 0.875 µM) | >128 µg/mL | 0.5 µg/mL (≈ 0.438 µM) | 1 µg/mL (≈ 0.875 µM)
9 | CC[C@H](C)CCCCC(=O)N[C@@H](CCN)C(=O)N[C@H](C(=O)N[C@@H](CCN)C(=O)N[C@H]1CCNC(=O)[C@H]([C@@H](C)O)NC(=O)[C@H](CCN)NC(=O)[C@H](CCN)NC(=O)[C@H]([C@@H](C)O)NC(=O)[C@@H](CC(C)C)NC(=O)[C@H](CCN)NC1=O)[C@@H](C)O [Compound 102, (S)-6-methyloctanoyl-Dab-Thr-Dab-ring(4-10)[Dab-Dab-D-Leu-Thr-Dab-Dab-Thr]] (X2-[Dab]T[Dab][Dab][Dab][dL]T[Dab][Dab]T; lactam 4-C) | – | – | – | – | – | 1 µg/mL (≈ 0.864 µM) | 1 µg/mL (≈ 0.864 µM) | >128 µg/mL | 0.5 µg/mL (≈ 0.432 µM) | 0.25 µg/mL (≈ 0.216 µM)
10 | CCCCCCCC(=O)N[C@@H](CCN)C(=O)N[C@H](C(=O)N[C@@H](CCN)C(=O)N[C@H]1CCNC(=O)[C@H]([C@@H](C)O)NC(=O)[C@H](CCN)NC(=O)[C@H](CCN)NC(=O)[C@H]([C@@H](C)O)NC(=O)[C@@H](CC(C)C)NC(=O)[C@H](CCN)NC1=O)[C@@H](C)O [Compound 104, octanoyl-Dab-Thr-Dab-ring(4-10)[Dab-Dab-D-Leu-Thr-Dab-Dab-Thr]] (Octanoyl-[Dab]T[Dab][Dab][Dab][dL]T[Dab][Dab]T; lactam 4-C) | – | – | – | – | – | 0.25 µg/mL (≈ 0.219 µM) | 1 µg/mL (≈ 0.875 µM) | 64 µg/mL (≈ 56 µM) | 0.5 µg/mL (≈ 0.437 µM) | 0.5 µg/mL (≈ 0.437 µM)
11 | CCCCCCCC(=O)N[C@@H](CCN)C(=O)N[C@H](C(=O)N[C@@H](CCN)C(=O)N[C@H]1CCNC(=O)[C@H](CO)NC(=O)[C@H](CCN)NC(=O)[C@H](CCN)NC(=O)[C@H]([C@@H](C)O)NC(=O)[C@@H](CC(C)C)NC(=O)[C@H](CCN)NC1=O)[C@@H](C)O [Compound 109, octanoyl-Dab-Thr-Dab-ring(4-10)[Dab-Dab-D-Leu-Thr-Dab-Dab-Ser]] (Octanoyl-[Dab]T[Dab][Dab][Dab][dL]T[Dab][Dab]S; lactam 4-C) | – | – | – | – | – | 1 µg/mL (≈ 0.885 µM) | 1 µg/mL (≈ 0.885 µM) | >128 µg/mL | 16 µg/mL (≈ 14.2 µM) | 2 µg/mL (≈ 1.77 µM)
12 | CCCCCCCC(=O)N[C@@H](CCN)C(=O)N[C@H](C(=O)N[C@@H](CO)C(=O)N[C@H]1CCNC(=O)[C@H]([C@@H](C)O)NC(=O)[C@H](CCN)NC(=O)[C@H](CCN)NC(=O)[C@H]([C@@H](C)O)NC(=O)[C@@H](CC(C)C)NC(=O)[C@H](CCN)NC1=O)[C@@H](C)O [Compound 111, octanoyl-Dab-Thr-Ser-ring(4-10)[Dab-Dab-D-Leu-Thr-Dab-Dab-Thr]] (Octanoyl-[Dab]TS[Dab][Dab][dL]T[Dab][Dab]T; lactam 4-C) | – | – | – | – | – | 0.5 µg/mL (≈ 0.442 µM) | 1 µg/mL (≈ 0.885 µM) | 64 µg/mL (≈ 56.6 µM) | 1 µg/mL (≈ 0.885 µM) | 0.5 µg/mL (≈ 0.442 µM)
13 | CCCCCCCC(=O)N[C@@H](CCN)C(=O)N[C@H](C(=O)N[C@H](CO)C(=O)N[C@H]1CCNC(=O)[C@H]([C@@H](C)O)NC(=O)[C@H](CCN)NC(=O)[C@H](CCN)NC(=O)[C@H]([C@@H](C)O)NC(=O)[C@@H](Cc2ccccc2)NC(=O)[C@H](CCN)NC1=O)[C@@H](C)O [Compound 117, octanoyl-Dab-Thr-D-Ser-ring(4-10)[Dab-Dab-D-Phe-Thr-Dab-Dab-Thr]] (Octanoyl-[Dab]T[dS][Dab][Dab][dF]T[Dab][Dab]T; lactam 4-C) | – | – | – | – | – | 0.5 µg/mL (≈ 0.429 µM) | 2 µg/mL (≈ 1.72 µM) | >128 µg/mL | 0.25 µg/mL (≈ 0.215 µM) | 0.5 µg/mL (≈ 0.429 µM)
